Where a SMILES comes first, the peptide text is derived from it. The star is where a group is joined. Palmitoyl = CCCCCCCCCCCCCCCC(=O)*
How the values were obtained:
[1] = ATR-FT-IR β-sheet content; type: physicochemical; details: ATR-IR of lyophilized fibril solutions (1 mg mL-1, PBS); peak integration at 1630 cm-1 in 2nd derivative of amide I region
Procedure: ATR‐FT‐IR: ATR‐IR spectra acquisition and the calculation of β−sheet content were conducted according to a previous report.^[ [20] ^] Briefly, FT‐IR spectra of solid samples were recorded after lyophilization of fibril solutions using a Bruker Tensor II spectrometer equipped with a diamond crystal as ATR element with a spectral resolution of 2 cm–1, each spectrum was an average of 64 scans. The data was processed with Origin software. β−sheet amount was determined by calculating the integral of the peak at 1630 cm^−1 (β‐sheet) relative to the integral between 1650–1700 cm^−1 (native structure) from the 2nd derivative of the FT‐IR spectra.

CD4+ T cells = type: cell-based, Human; details: 0.26, 1.3, 6.5 µM, 3 days; LIVE/DEAD Fixable Aqua stain
Procedure: γ‐Retroviral transduction Assay CD4+ T cells: Human CD4+ T cells were isolated from a Buffy coat using RosetteSep Human CD4+ Enrichment Cocktail ([…] Technologies) according to manufacturer's protocol. Isolated T cells were activated using Dynabeads Human T‐Activator CD3/CD28 (GibcoTM) according to manufacturer's protocol in presence of 10 ng mL^−1 IL‐2 (Miltenyi Biotec) for three days. After 3 days the magnetic Dynabeads were removed using a magnet and T cells were cultured in presence of 9 ng mL^−1 IL‐7 (Miltenyi Biotec) and 10 ng mL^−1 IL‐15 (Miltenyi Biotec). After 1 day 5 × 10^5 T cells were transduced with GALV‐γ‐RV in absence and presence of PA1, PA2, EF‐C (0.26, 1.3 and 6.5 µM) and Vectofusin−1 (10 µg mL^−1; Miltenyi Biotec), or RetroNectin (20 µg mL^−1; Takara Bio). […] After 3 days GFP+ T cells were analyzed by flow cytometry. Viability was determined using LIVE/DEAD Fixable Aqua Dead Cell Stain Kit (ThermoFisher Scientific) according to manufacturer's protocol. […]
Figure S7 Viability of CD4+ T cells. […] Dead cells were initially eliminated by gating on viability dye-negative cells (SSC-A vs. Fixable Aqua Fluorescence) and afterwards for singlets (FSC-H vs. FSC-A). GFP+ cells were measured using the FITC channel. […]

Compound	β-sheet content [1]	viability of CD4+ T cells (CD4+ T cells)
CCCCCCCCCCCCCCCC(=O)N[C@@H](Cc1ccccc1)C(=O)N[C@@H](CCC(N)=O)C(=O)N[C@@H](Cc1ccccc1)C(=O)N[C@@H](CCCCN)C(=O)N[C@@H](Cc1ccccc1)C(=O)N[C@@H](CCCCN)C(=O)N[C@@H](CS)C(N)=O [PA2] (Palmitoyl-FQFKFKC-NH2)	59%	did not reduce the viability
C16-VVVAAAKKK-NH2 [PA1]	57%	did not reduce the viability

Reference: article PMC11468294, “Peptide Amphiphiles as Biodegradable Adjuvants for Efficient Retroviral Gene Delivery” (Advanced Healthcare Materials, 2023)
